What was measured:
[1] = target: T1, human recombinant COX-2 (Homo sapiens, UniProt P35354); assay: In vitro COX-2 inhibition assay (colorimetric COX inhibitor screening kit, Cayman); assay type: biochemical
T1 construct: purchased Cayman Chemicals Inc. 560131
T1 sequence (P35354 18-604): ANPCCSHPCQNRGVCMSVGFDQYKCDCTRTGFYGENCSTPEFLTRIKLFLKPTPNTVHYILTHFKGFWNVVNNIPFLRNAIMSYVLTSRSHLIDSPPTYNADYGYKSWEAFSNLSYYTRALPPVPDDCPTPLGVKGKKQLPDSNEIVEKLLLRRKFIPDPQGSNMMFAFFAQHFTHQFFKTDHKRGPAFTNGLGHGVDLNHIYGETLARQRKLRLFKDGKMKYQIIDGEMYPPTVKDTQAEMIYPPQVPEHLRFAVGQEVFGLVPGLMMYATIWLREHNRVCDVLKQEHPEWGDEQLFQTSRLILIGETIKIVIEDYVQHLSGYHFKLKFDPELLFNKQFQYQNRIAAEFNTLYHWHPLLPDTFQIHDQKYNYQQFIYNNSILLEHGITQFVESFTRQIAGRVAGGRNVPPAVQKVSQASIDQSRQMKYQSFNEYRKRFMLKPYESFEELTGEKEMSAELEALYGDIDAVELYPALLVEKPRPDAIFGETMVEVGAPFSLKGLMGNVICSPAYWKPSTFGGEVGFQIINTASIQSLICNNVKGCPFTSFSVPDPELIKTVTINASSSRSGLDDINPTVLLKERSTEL
Experimental: Both assays were carried out in compliance with the manufacturer’s instructions and in accordance to prior studies[29]^,[33].
IC50 values (μM) and selectivity indices (SI) were calculated.

[2] = tested on: PMA/LPS-stimulated THP-1 (M1 macrophages); assay: Cytotoxicity assay on differentiated M1 macrophages (MTS); assay type: cell-based, human; conditions: PMA 24 h, LPS 24 h, then compound 24 h; up to 100 μM
Experimental: To confirm that the previous observations were a consequence of interference of the compounds with the differentiation process rather than a reduction in monocyte viability, THP-1 monocytes were incubated with different concentrations of the compound for 30 h. No difference in cell viability was detected. Moreover, the cytotoxic effects of the drugs on differentiated macrophages were evaluated. Following the incubation of THP-1 cells with 25 nM PMA for 24 h and 100 ng/ml LPS for 24 h, the differentiated macrophages were treated with different concentrations of the compounds for 24 h. Cell viability was assessed using MTS colorimetric cell viability kit (Abcam, Cambridge, UK).

COc1ccc(-c2nn(-c3ccccc3)cc2/C=C2\SC(N3CCCCC3)=NC2=O)cc1 [Compound 7, (Z)-5-((3-(4-methoxyphenyl)-1-phenyl-1H-pyrazol-4-yl)methylene)-2-(piperidin-1-yl)thiazol-4(5H)-one]
SI (COX-1/ COX-2) ([1]; IC50 (COX-1)/IC50 (COX-2)): 114
IC50 ([1]; mean of three determinations): 90 nM
M1 macrophage cell viability [2]: tended to slightly decrease

Source: paper PMC7901699, “Challenging inflammatory process at molecular, cellular and in vivo levels via some new pyrazolyl thiazolones” (Journal of Enzyme Inhibition and Medicinal Chemistry, 2021)
